PMC11240139, “Exploring the antitumor potential of novel quinoline derivatives via tubulin polymerization inhibition in breast cancer; design, synthesis and molecular docking” (RSC Advances, 2024)

Columns and labels:
Type in all cases: cell-based
786-0 (renal cancer) = experiment: NCI-60 SRB cytotoxicity screen
[1] = system: A549/ATCC (non-small cell lung cancer); experiment: NCI-60 SRB cytotoxicity screen
TK-10 (renal cancer) = experiment: NCI-60 SRB cytotoxicity screen
MALME-3M (melanoma) = experiment: NCI-60 SRB cytotoxicity screen
KM12 (colon cancer) = experiment: NCI-60 SRB cytotoxicity screen
CAKI-1 (renal cancer) = experiment: NCI-60 SRB cytotoxicity screen
RXF 393 (renal cancer) = experiment: NCI-60 SRB cytotoxicity screen
SK-MEL-2 (melanoma) = experiment: NCI-60 SRB cytotoxicity screen
MCF7 (breast cancer) = experiment: NCI-60 SRB cytotoxicity screen
HCT-15 (colon cancer) = experiment: NCI-60 SRB cytotoxicity screen
MDA-MB-435 (melanoma) = experiment: NCI-60 SRB cytotoxicity screen
BT-549 (breast cancer) = experiment: NCI-60 SRB cytotoxicity screen
SK-MEL-5 (melanoma) = experiment: NCI-60 SRB cytotoxicity screen
SW-620 (colon cancer) = experiment: NCI-60 SRB cytotoxicity screen
MDA-MB-231 cells = experiment: Cell apoptosis analysis (annexin V-FITC/PI); conditions: MDA-MB-231, IC50 dose, 24 h
Protocol: Annexin-V-FITC Apoptosis Detection Kit (Biovision, USA) was used to determine apoptotic cells according to manufacturer's instructions. Briefly, MDA-MB 231 cells (2 × 10^5 cells) were seeded in 6-well plates and cultured for 24 h. […] Cells were collected, washed with PBS and centrifuged. The cells were re-suspended in 500 μL of 1× binding buffer. 5 μL of annexin V-FITC and 5 μL of propidium iodide (PI […]) were added and the cells were incubated in the dark at room temperature for 5 min. The fluorescence of the stained cells was analyzed by flow cytometry using FACSCalibur (BD Biosciences, Mountain View, CA). The data were analyzed using the CellQuest software (BD Biosciences).[53,54]

[2] = system: HOP-62 (non-small cell lung cancer); experiment: NCI-60 SRB cytotoxicity screen
[3] = Homo sapiens, five-dose assay, read-out: LC50 (the source's name)
[4] = Homo sapiens, single dose 10 μM, read-out: growth inhibition (GI%)
[5] = Homo sapiens, RXF 393, five-dose assay
[6] = Homo sapiens, HCT-15, five-dose assay
[7] = Homo sapiens, BT-549, five-dose assay
[8] = Homo sapiens, SK-MEL-5, five-dose assay
[9] = Homo sapiens, SW-620, five-dose assay
[10] = Homo sapiens, HOP-62, five-dose assay

SMILES: CCc1cccc2cc(-c3cc(-c4cc(OC)c(OC)c(OC)c4)[nH]c(=O)c3C#N)c(Cl)nc12 [Compound 4c, 4-(2-Chloro-8-ethylquinolin-3-yl)-2-oxo-6-(3,4,5-trimethoxyphenyl)-1,2-dihydropyridine-3-carbonitrile]
- TGI (786-0 (renal cancer); 786-0, five-dose assay): 26.70 µM
- growth inhibition (GI%) (786-0 (renal cancer); 786-0, single dose 10 μM): lethal effect
- GI50 (786-0 (renal cancer); Homo sapiens, 786-0, five-dose assay): 11.7 µM
- CC50 (786-0 (renal cancer); Homo sapiens, 786-0, five-dose assay, read-out: LC50 (the source's name)): 61.1 µM
- inhibition at 10 µM (786-0 (renal cancer); Homo sapiens, 786-0, single dose 10 μM, read-out: growth inhibition (GI%)): > 100%
- GI50 ([1]; Homo sapiens, five-dose assay): 12.2 µM
- CC50 [1, 3]: > 100 µM
- inhibition at 10 µM [1, 4]: 88.2%
- TGI ([1]; five-dose assay): 48.70 µM
- GI50 (TK-10 (renal cancer); Homo sapiens, TK-10, five-dose assay): 17.5 µM
- CC50 (TK-10 (renal cancer); Homo sapiens, TK-10, five-dose assay, read-out: LC50 (the source's name)): > 100 µM
- inhibition at 10 µM (TK-10 (renal cancer); Homo sapiens, TK-10, single dose 10 μM, read-out: growth inhibition (GI%)): > 100%
- TGI (TK-10 (renal cancer); TK-10, five-dose assay): 34.50 µM
- growth inhibition (GI%) (TK-10 (renal cancer); TK-10, single dose 10 μM): lethal effect
- GI50 (MALME-3M (melanoma); Homo sapiens, five-dose assay): 10.1 µM
- CC50 (MALME-3M (melanoma); [3]): > 100 µM
- inhibition at 10 µM (MALME-3M (melanoma); [4]): 89.4%
- TGI (MALME-3M (melanoma); five-dose assay): 40.00 µM
- GI50 (KM12 (colon cancer); Homo sapiens, KM12, five-dose assay): 33.6 µM
- CC50 (KM12 (colon cancer); Homo sapiens, KM12, five-dose assay, read-out: LC50 (the source's name)): > 100 µM
- inhibition at 10 µM (KM12 (colon cancer); Homo sapiens, KM12, single dose 10 μM, read-out: growth inhibition (GI%)): 55.1%
- TGI (KM12 (colon cancer); KM12, five-dose assay): >100 µM
- TGI (CAKI-1 (renal cancer); CAKI-1, five-dose assay): 22.90 µM
- GI50 (CAKI-1 (renal cancer); Homo sapiens, CAKI-1, five-dose assay): 10.7 µM
- CC50 (CAKI-1 (renal cancer); Homo sapiens, CAKI-1, five-dose assay, read-out: LC50 (the source's name)): 49.2 µM
- inhibition at 10 µM (CAKI-1 (renal cancer); Homo sapiens, CAKI-1, single dose 10 μM, read-out: growth inhibition (GI%)): 95.1%
- GI50 (RXF 393 (renal cancer); [5]): 2.21 µM
- LC50 (RXF 393 (renal cancer); [5]): 35.4 µM
- inhibition at 10 µM (RXF 393 (renal cancer); Homo sapiens, RXF 393, single dose 10 μM, read-out: growth inhibition (GI%)): > 100%
- TGI (RXF 393 (renal cancer); RXF 393, five-dose assay): 6.69 µM
- growth inhibition (GI%) (RXF 393 (renal cancer); RXF 393, single dose 10 μM): lethal effect
- GI50 (SK-MEL-2 (melanoma); Homo sapiens, SK-MEL-2, five-dose assay): 39.8 µM
- CC50 (SK-MEL-2 (melanoma); Homo sapiens, SK-MEL-2, five-dose assay, read-out: LC50 (the source's name)): > 100 µM
- inhibition at 10 µM (SK-MEL-2 (melanoma); Homo sapiens, SK-MEL-2, single dose 10 μM, read-out: growth inhibition (GI%)): 29.8%
- TGI (SK-MEL-2 (melanoma); SK-MEL-2, five-dose assay): >100 µM
- GI50 (MCF7 (breast cancer); Homo sapiens, MCF7, five-dose assay): 24 µM
- CC50 (MCF7 (breast cancer); Homo sapiens, MCF7, five-dose assay, read-out: LC50 (the source's name)): > 100 µM
- inhibition at 10 µM (MCF7 (breast cancer); Homo sapiens, MCF7, single dose 10 μM, read-out: growth inhibition (GI%)): 54.8%
- TGI (MCF7 (breast cancer); MCF7, five-dose assay): >100 µM
- TGI (HCT-15 (colon cancer); HCT-15, five-dose assay): >100 µM
- GI50 (HCT-15 (colon cancer); [6]): 27.6 µM
- LC50 (concentration causing 50% net cell kill) (HCT-15 (colon cancer); [6]): > 100 µM
- inhibition at 10 µM (HCT-15 (colon cancer); Homo sapiens, HCT-15, single dose 10 μM, read-out: growth inhibition (GI%)): 35.8%
- GI50 (MDA-MB-435 (melanoma); Homo sapiens, MDA-MB-435): 32.6 µM
- inhibition at 10 µM (MDA-MB-435 (melanoma); Homo sapiens, MDA-MB-435, read-out: growth inhibition (GI%)): 56.5%
- LC50 (lethal concentration, 50% net cell kill) (MDA-MB-435 (melanoma); Homo sapiens, MDA-MB-435, five-dose assay): > 100 µM
- TGI (MDA-MB-435 (melanoma); MDA-MB-435, five-dose assay): >100 µM
- TGI (BT-549 (breast cancer); BT-549, five-dose assay): 28.10 µM
- GI50 (BT-549 (breast cancer); [7]): 4.11 µM
- LC50 (BT-549 (breast cancer); [7]): > 100 µM
- inhibition at 10 µM (BT-549 (breast cancer); Homo sapiens, BT-549, single dose 10 μM, read-out: growth inhibition (GI%)): 57.5%
- GI50 (SK-MEL-5 (melanoma); [8]): 17.5 µM
- LC50 (SK-MEL-5 (melanoma); [8]): > 100 µM
- inhibition at 10 µM (SK-MEL-5 (melanoma); Homo sapiens, SK-MEL-5, single dose 10 μM, read-out: growth inhibition (GI%)): 78.6%
- TGI (SK-MEL-5 (melanoma); SK-MEL-5, five-dose assay): 90.20 µM
- GI50 (SW-620 (colon cancer); [9]): 27.5 µM
- LC50 (lethal concentration, 50% net cell kill) (SW-620 (colon cancer); [9]): > 100 µM
- inhibition at 10 µM (SW-620 (colon cancer); Homo sapiens, SW-620, single dose 10 μM, read-out: growth inhibition (GI%)): 17.4%
- TGI (SW-620 (colon cancer); SW-620, five-dose assay): >100 µM
- Early Apoptosis (%) (MDA-MB-231 cells): 7.44 ± 1.59%
- Late Apoptosis (%) (MDA-MB-231 cells): 17.1 ± 1.9%
- Necrosis (%) (MDA-MB-231 cells): 4.61 + 2%
- TGI ([2]; HOP-62, five-dose assay): 78.90 µM
- GI50 [2, 10]: 20.7 µM
- LC50 [2, 10]: > 100 µM
- inhibition at 10 µM ([2]; Homo sapiens, HOP-62, single dose 10 μM, read-out: growth inhibition (GI%)): 87.9%
